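Tested at 5 concentrations; 48 h exposure; 96-well plates; endpoints linearly interpolated, else capped at highest concentration. GI50 marks 50% less growth. TGI denotes the concentration required for complete inhibition of growth.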
What was measured:
Test in all cases: inhibition of tumour cell growth, NCI panel, 48 h
SNB-75 CNS = test system: SNB-75 CNS
786-0 renal = test system: 786-0 renal
SK-MEL-5 melanoma = test system: SK-MEL-5 melanoma
COLO 205 colon = test system: COLO 205 colon
HT29 colon = test system: HT29 colon
UACC-62 melanoma = test system: UACC-62 melanoma
OVCAR-4 ovarian = test system: OVCAR-4 ovarian
M14 melanoma = test system: M14 melanoma
IGROV1 ovarian = test system: IGROV1 ovarian
SW-620 colon = test system: SW-620 colon
HS 578T breast = test system: HS 578T breast
EKVX NSCLC = test system: EKVX NSCLC
A498 renal = test system: A498 renal
UO-31 renal = test system: UO-31 renal
MCF7 breast = test system: MCF7 breast
SK-MEL-2 melanoma = test system: SK-MEL-2 melanoma
SF-539 CNS = test system: SF-539 CNS
OVCAR-8 ovarian = test system: OVCAR-8 ovarian
NCI-H23 lung = test system: NCI-H23 lung
NCI-H226 lung = test system: NCI-H226 lung
MDA-MB-231 breast = test system: MDA-MB-231 breast
BT-549 breast = test system: BT-549 breast
NCI-H460 lung = test system: NCI-H460 lung
MALME-3M melanoma = test system: MALME-3M melanoma
U251 CNS = test system: U251 CNS
SNB-19 CNS = test system: SNB-19 CNS
OVCAR-3 ovarian = test system: OVCAR-3 ovarian
T-47D breast = test system: T-47D breast
SN12C renal = test system: SN12C renal
HOP-92 NSCLC = test system: HOP-92 NSCLC
TK-10 renal = test system: TK-10 renal
MOLT-4 leukemia = test system: MOLT-4 leukemia
DU-145 prostate = test system: DU-145 prostate
SF-295 CNS = test system: SF-295 CNS
HCC-2998 colon = test system: HCC-2998 colon
NCI/ADR-RES ovarian = test system: NCI/ADR-RES ovarian
SF-268 CNS = test system: SF-268 CNS
HOP-62 NSCLC = test system: HOP-62 NSCLC
SK-MEL-28 melanoma = test system: SK-MEL-28 melanoma
NCI-H522 lung = test system: NCI-H522 lung
SR leukemia = test system: SR leukemia
SK-OV-3 ovarian = test system: SK-OV-3 ovarian
KM12 colon = test system: KM12 colon
PC-3 prostate = test system: PC-3 prostate
CAKI-1 renal = test system: CAKI-1 renal
UACC-257 melanoma = test system: UACC-257 melanoma
MDA-MB-435 = test system: MDA-MB-435
ACHN renal = test system: ACHN renal
K-562 leukemia = test system: K-562 leukemia
HL-60(TB) leukemia = test system: HL-60(TB) leukemia
CCRF-CEM leukemia = test system: CCRF-CEM leukemia
HCT-15 colon = test system: HCT-15 colon
LOX IMVI melanoma = test system: LOX IMVI melanoma
RPMI-8226 leukemia = test system: RPMI-8226 leukemia
OVCAR-5 ovarian = test system: OVCAR-5 ovarian
MDA-MB-468 breast = test system: MDA-MB-468 breast
HCT-116 colon = test system: HCT-116 colon
RXF 393 renal = test system: RXF 393 renal

O=C(NN1C(=O)/C(=C/C=C/c2ccc([N+](=O)[O-])o2)SC1=S)c1ccc(Cl)cc1
GI50 (SNB-75 CNS): 1200 nM | TGI (SNB-75 CNS): 2820 nM | GI50 (786-0 renal): 241 nM | TGI (786-0 renal): 550 nM | GI50 (SK-MEL-5 melanoma): 214 nM | TGI (SK-MEL-5 melanoma): 500 nM | GI50 (COLO 205 colon): 212 nM | TGI (COLO 205 colon): 428 nM | GI50 (HT29 colon): 221 nM | TGI (HT29 colon): 475 nM | GI50 (UACC-62 melanoma): 223 nM | TGI (UACC-62 melanoma): 564 nM | GI50 (OVCAR-4 ovarian): 1260 nM | TGI (OVCAR-4 ovarian): 2790 nM | GI50 (M14 melanoma): 189 nM | TGI (M14 melanoma): 369 nM | GI50 (IGROV1 ovarian): 596 nM | TGI (IGROV1 ovarian): 1390 nM | GI50 (SW-620 colon): 143 nM | TGI (SW-620 colon): 310 nM | GI50 (HS 578T breast): 1350 nM | TGI (HS 578T breast): 4550 nM | GI50 (EKVX NSCLC): 285 nM | TGI (EKVX NSCLC): 889 nM | GI50 (A498 renal): 4200 nM | TGI (A498 renal): 9700 nM | GI50 (UO-31 renal): 671 nM | TGI (UO-31 renal): 1970 nM | GI50 (MCF7 breast): 293 nM | TGI (MCF7 breast): 1440 nM | GI50 (SK-MEL-2 melanoma): 219 nM | TGI (SK-MEL-2 melanoma): 503 nM | GI50 (SF-539 CNS): 202 nM | TGI (SF-539 CNS): 401 nM | GI50 (OVCAR-8 ovarian): 245 nM | TGI (OVCAR-8 ovarian): 774 nM | GI50 (NCI-H23 lung): 202 nM | TGI (NCI-H23 lung): 442 nM | GI50 (NCI-H226 lung): 247 nM | TGI (NCI-H226 lung): 601 nM | GI50 (MDA-MB-231 breast): 180 nM | TGI (MDA-MB-231 breast): 341 nM | GI50 (BT-549 breast): 225 nM | TGI (BT-549 breast): 519 nM | GI50 (NCI-H460 lung): 252 nM | TGI (NCI-H460 lung): 648 nM | GI50 (MALME-3M melanoma): 186 nM | TGI (MALME-3M melanoma): 347 nM | GI50 (U251 CNS): 306 nM | TGI (U251 CNS): 1120 nM | GI50 (SNB-19 CNS): 1270 nM | TGI (SNB-19 CNS): 2540 nM | GI50 (OVCAR-3 ovarian): 268 nM | TGI (OVCAR-3 ovarian): 747 nM | GI50 (T-47D breast): 1640 nM | TGI (T-47D breast): 3100 nM | GI50 (SN12C renal): 172 nM | TGI (SN12C renal): 375 nM | GI50 (HOP-92 NSCLC): 299 nM | TGI (HOP-92 NSCLC): 734 nM | GI50 (TK-10 renal): 1470 nM | TGI (TK-10 renal): 2920 nM | GI50 (MOLT-4 leukemia): 397 nM | TGI (MOLT-4 leukemia): 13600 nM | GI50 (DU-145 prostate): 614 nM | TGI (DU-145 prostate): 1550 nM | GI50 (SF-295 CNS): 1740 nM | TGI (SF-295 CNS): 3280 nM | GI50 (HCC-2998 colon): 268 nM | TGI (HCC-2998 colon): 706 nM | GI50 (NCI/ADR-RES ovarian): 493 nM | TGI (NCI/ADR-RES ovarian): 2000 nM | GI50 (SF-268 CNS): 1530 nM | TGI (SF-268 CNS): 4110 nM | GI50 (HOP-62 NSCLC): 780 nM | TGI (HOP-62 NSCLC): 2120 nM | GI50 (SK-MEL-28 melanoma): 356 nM | TGI (SK-MEL-28 melanoma): 1100 nM | GI50 (NCI-H522 lung): 180 nM | TGI (NCI-H522 lung): 353 nM | GI50 (SR leukemia): 45.4 nM | TGI (SR leukemia): > 100000 nM | GI50 (SK-OV-3 ovarian): 1710 nM | TGI (SK-OV-3 ovarian): 3180 nM | GI50 (KM12 colon): 473 nM | TGI (KM12 colon): 1910 nM | GI50 (PC-3 prostate): 863 nM | TGI (PC-3 prostate): 3900 nM | GI50 (CAKI-1 renal): 346 nM | TGI (CAKI-1 renal): 1140 nM | GI50 (UACC-257 melanoma): 1480 nM | TGI (UACC-257 melanoma): 3220 nM | GI50 (MDA-MB-435): 203 nM | TGI (MDA-MB-435): 446 nM | GI50 (ACHN renal): 288 nM | TGI (ACHN renal): 780 nM | GI50 (K-562 leukemia): 121 nM | TGI (K-562 leukemia): 8280 nM | GI50 (HL-60(TB) leukemia): 2060 nM | TGI (HL-60(TB) leukemia): 11300 nM | GI50 (CCRF-CEM leukemia): 316 nM | TGI (CCRF-CEM leukemia): 9260 nM | GI50 (HCT-15 colon): 64.7 nM | TGI (HCT-15 colon): 208 nM | GI50 (LOX IMVI melanoma): 219 nM | TGI (LOX IMVI melanoma): 496 nM | GI50 (RPMI-8226 leukemia): 318 nM | TGI (RPMI-8226 leukemia): 2180 nM | GI50 (OVCAR-5 ovarian): 734 nM | TGI (OVCAR-5 ovarian): 2000 nM | GI50 (MDA-MB-468 breast): 1480 nM | TGI (MDA-MB-468 breast): 3090 nM | GI50 (HCT-116 colon): 84.8 nM | TGI (HCT-116 colon): 253 nM | GI50 (RXF 393 renal): 239 nM | TGI (RXF 393 renal): 837 nM

— PubChem BioAssay (NCI)
